Data taken from patent US12686697B2, “Advantageous morphic form of AT-527 hemi-sulfate salt” (Atea Pharmaceuticals, Inc., priority 2021, dated 2026).
“Also recorded” adds a separate entry of the source. Where a name gives a salt, the structure may show the parent alone.

Legend:
[1] = Stability of 5 kg lot of Form III at 25° C.±2° C., 60% RH±5% RH; format: physicochemical; details: stored at about 25° C. and about 60% RH, three months
Protocol: Example 6. Stability of 5 kg Lot of Form III at 25° C.±2° C., 60% RH±5% RH
These properties are advantageous for use in clinical trials or clinical use of the compound.

[2] = Stability of 5 kg lot of Form III at 40° C.±2° C., 75% RH±5% RH; format: physicochemical; details: 40° C. and 75% RH, three months
Protocol: Example 7. Stability of 5 kg Lot of Form III at 40° C.±2° C., 75% RH±5% RH
Further studies on the stability of Compound A Form III were conducted at elevated temperature and humidity. These conditions are less desirable for the storage of active pharmaceutical ingredients and may lead to accelerated degradation.

[3] = Stability of 0.1 kg lot of Form III under ambient conditions (15° C.-25° C., ambient RH); format: physicochemical; details: 12 months / one year
Protocol: Example 8. Stability of 0.1 kg Lot of Form III
Additional stability studies were performed for smaller lots of Compound A Form III. These studies were performed in stability chambers set to 25° C. and 60% RH, 40° C. and 75% RH for up to 8 weeks. In other embodiments the studies can be performed for up to 4 weeks, for up to 2 weeks and for one week. The stability studies were also performed under ambient conditions, 15-25° C. with no control over the humidity.

[4] = clinical trials; cited from earlier work
[5] = in vivo; cited from earlier work
SARS-CoV-2 = details: cited from earlier work
HCV = details: non-cirrhotic and cirrhotic HCV-infected patients, single and multiple doses; cited from earlier work

CNc1nc(N)nc2c1ncn2[C@@H]1O[C@H](CO[P@@](=O)(N[C@@H](C)C(=O)OC(C)C)Oc2ccccc2)[C@@H](O)[C@@]1(C)F [Compound A Form III, hemi-sulfate salt of isopropyl ((S)-(((2R,3R,4R,5R)-5-(2-amino-6-(methylamino)-9H-purin-9-yl)-4-fluoro-3-hydroxy-4-methyltetrahydrofuran-2-yl)methoxy)(phenoxy)phosphoryl)-L-alaninate]
Absorption of water from the atmosphere upon storage [1]: does not appreciably absorb water | Degradation measured by HPLC-UV [1]: no measurable degradation | Degradation (decrease in purity, generation of impurities) [2]: no measurable decrease in purity or generation of impurities; also recorded: no measurable degradation | Decrease in purity [3]: little or no decrease; also recorded: no measurable decrease in purity

CNc1nc(N)nc2c1ncn2[C@@H]1O[C@H](CO[P@@](=O)(N[C@@H](C)C(=O)OC(C)C)Oc2ccccc2)[C@@H](O)[C@@]1(C)F [Compound A, hemi-sulfate salt of isopropyl ((S)-(((2R,3R,4R,5R)-5-(2-amino-6-(methylamino)-9H-purin-9-yl)-4-fluoro-3-hydroxy-4-methyltetrahydrofuran-2-yl)methoxy)(phenoxy)phosphoryl)-L-alaninate]
Drug related serious adverse events [4]: no drug related serious adverse events observed | Tissue concentration [5]: disproportionately concentrate in the lung and the liver | Potency against SARS-CoV-2 (SARS-CoV-2): potent | Antiviral reduction in HCV-infected cohorts (HCV): significant antiviral reduction
